Experimental findings from patent US9475784B2, “4,6-diarylaminothiazines as BACE1 inhibitors and their use for the reduction of beta-amyloid production” (BRISTOL-MYERS SQUIBB COMPANY, priority 2012, dated 2016) are described below.

Where a name gives a salt, the structure may show the parent alone.

The test system of the test is Aβ42 production in H4 cells stably transfected with APP751 containing the Swedish mutation (H4 APP751 SWE clone 8.20). In words: Cellular assay for inhibition of Aβ1-42 production (H4 APP751 SWE clone 8.20). In kind it is cell-based. The conditions noted are these: H4 APP751 SWE clone 8.20 cells, 19 h incubation. As to the method:
Cellular Assays for Inhibition of Aβ1-40 and Aβ1-42 Production
H4 cells stably transfected with APP751 containing the Swedish mutation (H4 APP751 SWE clone 8.20, developed at BMS) were maintained in log phase through twice weekly passage at a 1:20 split. […] Following incubation for 19 h in 5% CO2 at 37° C., plates were briefly centrifuged (1000 rpm, 5 min). A 10 μl aliquot from each well was transferred to a second assay plate (Costar 3709) for Aβ40 measurements. Antibody cocktails were freshly prepared by dilution into 40 mM Tris-HCl (pH 7.4) with 0.2% BSA and added to assay plates. For Aβ42 measurements, antibodies specific for the Aβ42 neoepitope (565, developed at BMS; conjugated to the Wallac reagent (Perkin Elmer)) and the N-terminal sequence of Aβ peptide (26D6, developed at SIBIA; conjugated to APC (Perkin Elmer)) were mixed and 20 μl of the mixture was added to each well of the incubated cell plate yielding a final concentration of 0.8 ng/well 565 and 75 ng/well 26D6. For the Aβ40 measurements, antibodies specific for the Aβ40 neoepitope (TSD, developed at BMS; conjugated to the Wallac reagent (Perkin Elmer)) and 26D6 as described above were mixed and 20 μl of the mixture was added to the 10 μl aliquots which had been removed previously from the cell plate yielding a final concentration of 1.6 ng/well TSD and 17.5 ng/well 26D6. Assay plates containing antibodies were sealed with aluminum foil and incubated overnight at 4° C. Signal was determined using a Viewlux counter (Perkin Elmer) and IC50 values determined using curve fitting in CurveMaster (Excel Fit based).

The mark [1] stands for this setting: Table 5B, 6-heterocyclic thiazine examples.

Consider `NC1=N[C@H](c2cccc(-c3cncnc3)c2)C[C@@H](c2cccnc2)S1` (racemic) [Example 20, (±)-6-(pyridin-3-yl)-4-(3-(pyrimidin-5-yl)phenyl)-5,6-dihydro-4H-1,3-thiazin-2-amine•TFA], for which the IC50 under setting [1] worked out at 7800 nM.

For the molecule `NC1=N[C@H](c2cccc(-c3cncnc3)c2)C[C@@H](c2c[nH]cn2)S1` (racemic) [Example 21, (±)-6-(1H-imidazol-4-yl)-4-(3-(pyrimidin-5-yl)phenyl)-5,6-dihydro-4H-1,3-thiazin-2-amine•TFA], under setting [1], the half-inhibitory concentration (IC50) is over 30000 nM.

For the molecule `COc1ncc(-c2cc([C@]3(C)C[C@@H](c4c(C)noc4C)SC(N)=N3)c(F)cc2F)cc1Cl` [Example 57, (4S,6S)-4-(5-(5-chloro-6-methoxypyridin-3-yl)-2,4-difluorophenyl)-6-(3,5-dimethylisoxazol-4-yl)-4-methyl-5,6-dihydro-4H-1,3-thiazin-2-amine], the half-inhibitory concentration (IC50) under setting [1] was found to be 380 nM. In other words, the sub-micromolar range.

In turn, `NC1=N[C@H](c2cccc(-c3cncnc3)c2)C[C@@H](c2cnccn2)S1` (racemic) [Example 23, (±)-6-(pyrazin-2-yl)-4-(3-(pyrimidin-5-yl)phenyl)-5,6-dihydro-4H-1,3-thiazin-2-amine•TFA] registered an IC50 under setting [1] of 2400 nM.

On to `COc1ccc([C@@H]2C[C@@H](c3cc(-c4cncnc4)cs3)N=C(N)S2)cc1OC` (racemic) [Example 30, (±)-6-(3,4-dimethoxyphenyl)-4-(4-(pyrimidin-5-yl)thiophen-2-yl)-5,6-dihydro-4H-1,3-thiazin-2-amine], for which, under “Table 5A, 6-alkyl and 6-substituted phenyl thiazine examples”, 8000 nM corresponded to half-maximal inhibition (IC50).

With `Cc1noc(C)c1[C@@H]1C[C@@](C)(c2cc(-c3cnc(F)nc3)c(F)cc2F)N=C(N)S1` [Example 46, (4S,6S)-4-(2,4-difluoro-5-(2-fluoropyrimidin-5-yl)phenyl)-6-(3,5-dimethylisoxazol-4-yl)-4-methyl-5,6-dihydro-4H-1,3-thiazin-2-amine], under setting [1], half-maximal inhibition (IC50) was put at 390 nM.

`Cc1nc(C)c([C@@H]2C[C@@](C)(c3cc(-c4cncnc4)c(F)cc3F)N=C(N)S2)s1` [Example 43, (4S,6S)-4-(2,4-difluoro-5-(pyrimidin-5-yl)phenyl)-6-(2,4-dimethylthiazol-5-yl)-4-methyl-5,6-dihydro-4H-1,3-thiazin-2-amine] displayed an IC50 under setting [1] of 210 nM.

Under setting [1], `NC1=N[C@H](c2cccc(-c3cncnc3)c2)C[C@@H](c2ccccn2)S1` (racemic) [Example 22, (±)-6-(pyridin-2-yl)-4-(3-(pyrimidin-5-yl)phenyl)-5,6-dihydro-4H-1,3-thiazin-2-amine•TFA] showed a half-inhibitory concentration (IC50) of 2000 nM.

Under setting [1], `Cc1noc(C)c1[C@@H]1C[C@@](C)(c2cc(F)cc(F)c2)N=C(N)S1` [Example 49, (4S,6S)-4-(3,5-difluorophenyl)-6-(3,5-dimethylisoxazol-4-yl)-4-methyl-5,6-dihydro-4H-1,3-thiazin-2-amine] registered an IC50 of 270 nM.
